Measured values as given in patent US20060069132A1, “Azolecarboxamide herbicides” (priority 2004, published 2006).

Legend:
[1] = tested on: morningglory; assay: Test A pre-/postemergence herbicide test; type: in vivo, Ipomoea spp.
In short: (§1)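 Visual injury rating on a 0–100 scale (0 no effect, 100 complete control) versus untreated controls, about ten days after treatment in greenhouse. Pre: directed soil spray onto seeded sandy loam. Post: spray to runoff on plants 2–10 cm tall at one- to two-leaf stage.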

[2] = tested on: redroot pigweed; assay: Test A pre-/postemergence herbicide test; type: in vivo, Amaranthus retroflexus
In short: as §1

[3] = tested on: Surinam grass; assay: Test C pre-/postemergence herbicide test; type: in vivo, Urochloa decumbens
In short: (§2)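 Pre- and postemergence application, solvent/surfactant formulation; post at 1- to 4-leaf stage (2–18 cm). Greenhouse 12–14 d. Visual rating vs controls, 0 = no effect, 100 = complete control.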

[4] = tested on: cocklebur; assay: Test C pre-/postemergence herbicide test; type: in vivo, Xanthium strumarium
In short: as §2

[5] = tested on: corn; assay: Test C pre-/postemergence herbicide test; type: in vivo, Zea mays
In short: as §2

[6] = tested on: johnsongrass; assay: Test C pre-/postemergence herbicide test; type: in vivo, Sorghum halepense
In short: as §2

[7] = tested on: morningglory; assay: Test C pre-/postemergence herbicide test; type: in vivo, Ipomoea coccinea; design: key to Plant response rating, Morningglory: 0 = no effect, 100 = complete control
In short: as §2

[8] = tested on: pigweed; assay: Test C pre-/postemergence herbicide test; type: in vivo, Amaranthus retroflexus
In short: as §2

[9] = tested on: velvetleaf; assay: Test C pre-/postemergence herbicide test; type: in vivo, Abutilon theophrasti
In short: as §2

[10] = tested on: chickweed; assay: Test C postemergence herbicide test; type: in vivo, Stellaria media
Method: At the same time, plants selected from these crop and weed species and also winter barley (Hordeum vulgare L.), blackgrass (Alopecurus myosuroides Huds.), canarygrass (Phalaris minor Retz.), chickweed (Stellaria media (L.) Vill.), downy bromegrass (Bromus tectorum L.), green foxtail (Setaria viridis (L.) Beauv.), Italian ryegrass (Lolium multiflorum Lam.), wheat (Triticum aestivum L.), wild oat (Avenafatua L.) and windgrass (Apera spica-venti (L.) Beauv.) were treated with postemergence applications of some of the test chemicals formulated in the same manner. Plants ranged in height from 2 to 18 cm (1- to 4-leaf stage) for postemergence treatments. Plant species in the flooded paddy test consisted of rice (Oryza sativa), smallflower umbrella sedge (Cyperus difformis L.), ducksalad (Heteranthera limosa (Sw.) Willd.) and barnyardgrass (Echinochloa crus-galli (L.) Beauv.) grown to the 2-leaf stage for testing. Treated plants and controls were maintained in a greenhouse for 12 to 14 days, after which time all species were compared to controls and visually evaluated. Plant response ratings, summarized in Table C, are based on a scale of 0 to 100 where 0 is no effect and 100 is complete control. A dash (-) response means no test result.

[11] = Postemergence, 500 g ai/ha, 0 to 100 scale, 0 no effect, 100 complete control
[12] = Postemergence, 2000 g ai/ha, 0 to 100 scale, 0 no effect, 100 complete control
[13] = Preemergence, 500 g ai/ha, visual rating, 0 to 100 scale (0 no effect, 100 complete control)
[14] = Preemergence, 2000 g ai/ha, 0 to 100 scale, 0 no effect, 100 complete control
[15] = Postemergence, 500 g ai/ha, scale 0 to 100
[16] = Postemergence, 250 g ai/ha, scale 0 to 100, 0 no effect, 100 complete control
[17] = postemergence, 125 g ai/ha, scale 0 to 100
[18] = postemergence, 62 g ai/ha, scale 0 to 100

CCCCOC(=O)c1cccc(NC(=O)c2cc(C(C)(C)C)nn2CC)c1 [Compound 86]
Morningglory plant response rating [1, 11]: 20 | Plant response rating, Morningglory [1, 12]: 35 | Morningglory plant response rating [1, 13]: 0 | Morningglory plant response rating [1, 14]: 15 | Pigweed plant response rating [2, 11]: 55 | Plant response rating, Pigweed [2, 12]: 95 | Pigweed plant response rating [2, 13]: 0 | Pigweed plant response rating [2, 14]: 55 | Surinam Grass plant response rating [3, 15]: 85 | Plant response rating, Surinam Grass [3, 16]: 70 | Plant response rating, Surinam Grass [3, 17]: 60 | Plant response rating, Surinam Grass [3, 18]: 10 | Cocklebur plant response rating [4, 15]: 100 | Plant response rating, Cocklebur [4, 16]: 100 | Plant response rating, Cocklebur [4, 17]: 95 | Plant response rating, Cocklebur [4, 18]: 85 | Corn plant response rating [5, 15]: 30 | Plant response rating, Corn [5, 16]: 20 | Plant response rating, Corn [5, 17]: 20 | Plant response rating, Corn [5, 18]: 15 | Johnsongrass plant response rating [6, 15]: 30 | Plant response rating, Johnsongrass [6, 16]: 10 | Plant response rating, Johnsongrass [6, 18]: 10 | Morningglory plant response rating [7, 15]: 85 | Plant response rating, Morningglory [7, 16]: 85 | Plant response rating, Morningglory [7, 17]: 75 | Plant response rating, Morningglory [7, 18]: 10 | Pigweed plant response rating [8, 15]: 100 | Plant response rating, Pigweed [8, 16]: 100 | Plant response rating, Pigweed [8, 17]: 100 | Plant response rating, Pigweed [8, 18]: 100 | Velvetleaf plant response rating [9, 15]: 85 | Plant response rating, Velvetleaf [9, 16]: 80 | Plant response rating, Velvetleaf [9, 17]: 60 | Plant response rating, Velvetleaf [9, 18]: 40 | Chickweed plant response rating [10, 15]: 100 | Plant response rating, Chickweed [10, 16]: 100 | Plant response rating, Chickweed [10, 17]: 100 | Plant response rating, Chickweed [10, 18]: 100
